Measurements: US12240862B2, “Inhibitors of peptidylarginine deiminases” (Gilead Sciences, Inc., priority 2020, dated 2025)

Target: T1, human PAD4 (Homo sapiens, UniProt Q9UM07)
T1 construct: human PAD4 (NM_012387), A2P663, was PCR amplified; His-SUMO (N, cleaved yes); made in house; host or cells: E. coli BL21(DE3)
Experiment: In vitro PAD4 BAEE biochemical assay
Settings: human PAD4, BAEE substrate; 5 nM PAD4, 2 mM calcium chloride, 3 mM BAEE; geometric mean of multiple experiments
Summary of the method: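 Ammonia release from BAEE deimination monitored by o-phthalaldehyde amine coupling (1 h, 25 °C) after EDTA stop. Final conditions: 5 nM tag-free recombinant human PAD4 (E. coli), 2 mM CaCl2, 3 mM BAEE, pH 7.6 MOPS with DTT; 30 min compound preincubation, then 2 h reaction at 25 °C.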

T1 sequence (Q9UM07 2-663): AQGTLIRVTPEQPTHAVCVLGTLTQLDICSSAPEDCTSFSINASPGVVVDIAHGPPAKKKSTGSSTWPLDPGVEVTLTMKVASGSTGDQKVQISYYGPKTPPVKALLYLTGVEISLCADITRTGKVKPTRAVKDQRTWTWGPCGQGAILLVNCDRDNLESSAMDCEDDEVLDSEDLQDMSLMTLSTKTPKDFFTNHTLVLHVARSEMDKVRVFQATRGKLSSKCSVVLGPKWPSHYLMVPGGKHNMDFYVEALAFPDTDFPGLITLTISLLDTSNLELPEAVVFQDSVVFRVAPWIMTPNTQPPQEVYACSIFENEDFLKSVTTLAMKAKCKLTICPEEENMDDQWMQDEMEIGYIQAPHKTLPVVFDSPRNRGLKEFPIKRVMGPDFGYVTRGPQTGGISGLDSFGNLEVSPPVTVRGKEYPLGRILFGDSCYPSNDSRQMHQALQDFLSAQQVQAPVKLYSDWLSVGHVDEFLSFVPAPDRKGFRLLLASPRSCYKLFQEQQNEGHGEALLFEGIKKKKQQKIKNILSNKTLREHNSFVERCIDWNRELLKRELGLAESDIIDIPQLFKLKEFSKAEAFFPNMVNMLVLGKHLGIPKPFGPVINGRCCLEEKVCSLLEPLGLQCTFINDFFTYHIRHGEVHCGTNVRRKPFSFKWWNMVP

SMILES	IC50
COc1cc(C(=O)N2CCC[C@@H](N)C2)cc2nc(-c3cc4ccc(N(C(F)F)S(C)(=O)=O)nc4n3CC(F)(F)F)c(C)n12 [Example 494, ~{N}-[2-[7-[(3~{R})-3-aminopiperidine-1-carbonyl]-5-methoxy-3-methylimidazo[1,2-a]pyridin-2-yl]-1-(2,2,2-trifluoroethyl)pyrrolo [2,3-b]pyridin-6-yl]-~{N}-(difluoromethyl) methanesulfonamide]	0.276 µM
COc1cc(C(=O)N2[C@H]3CC[C@@H]2[C@H](N)C3)cc2nc(-c3cc4ccc(C5CCCCN5C(=O)C(C)(C)C)nc4n3CC3CC3)c(C)n12 (stereo partly drawn) [Example 514, 1-(2-(2-(7-((1R,2R,4S)-2-amino-7-azabicyclo[2.2.1]heptane-7-carbonyl)-5-methoxy-3-methylimidazo[1,2-a]pyridin-2-yl)-1-(cyclopropylmethyl)-1H-pyrrolo[2,3-b]pyridin-6-yl)piperidin-1-yl)-2,2-dimethylpropan-1-one]	0.741 µM
COc1cc(C(=O)N2[C@H]3CC[C@@H]2[C@H](N)C3)cc2nc(-c3cc4ccc(C5CCN(C(C)=O)CC5)nc4n3CC3CC3)c(C)n12 [Example 527, 1-[4-[2-[7-[(1~{R},2~{R}, 4~{S})-2-amino-7-azabicyclo[2.2.1]heptane-7-carbonyl]-5-methoxy-3-methylimidazo[1,2-a]pyridin-2-yl]-1-(cyclopropylmethyl)pyrrolo [2,3-b]pyridin-6-yl]piperidin-1-yl] ethenone]	0.22 µM
COc1cc(C(=O)N2C[C@@H]3CCCN[C@@H]3C2)cc2nc(-c3cc4ccc(N(C(F)F)S(C)(=O)=O)nc4n3CC3CC3)c(C)n12 [Example 337, ~{N}-[2-[7-[(4~{a}~{S}, 7~{a}~{S})-1,2,3,4,4~{a},5,7,7~{a}-octahydropyrrolo[3,4-b]pyridine-6-carbonyl]-5-methoxy-3-methylimidazo[1,2-a]pyridin-2-yl]-1-(cyclopropylmethyl)pyrrolo [2,3-b]pyridin-6-yl]-~{N}-(difluoromethyl) methanesulfonamide]	12.1 µM
COc1cc(C(=O)N2CCC[C@@H](N)C2)cc2nc(-c3cc4ccc(-c5cccnc5N5CCOCC5)nc4n3CC3CC3)c(C)n12 [Example 606, [(3~{R})-3-aminopiperidin-1-yl]-[2-[1-(cyclopropylmethyl)-6-(2-morpholin-4-ylpyridin-3-yl)pyrrolo[2,3-b]pyridin-2-yl]-5-methoxy-3-methylimidazo[1,2-a]pyridin-7-yl]methanone]	0.373 µM
CCc1ccc2cc(-c3nc4cc(C(=O)N5[C@H]6CC[C@@H]5[C@H](N)C6)cc(OC)n4c3C)n(-c3cnc(C)s3)c2n1 [Example 511, [(1~{R},2~{R},4~{S})-2-amino-7-azabicyclo [2.2.1]heptan-7-yl]-[2-[6-ethyl-1-(2-methyl-1,3-thiazol-5-yl)pyrrolo [2,3-b]pyridin-2-yl]-5-methoxy-3-methylimidazo [1,2-a]pyridin-7-yl] methanone]	4.68 µM
COc1cc(C(=O)N2CCC[C@@H](N)C2)cc2nc(-c3cc4ccc(N(C(F)F)S(=O)(=O)C5CC5)nc4n3CC3CC3)c(C)n12 [Example 413, ~{N}-[2-[7-[(3~{R})-3-aminopiperidine-1-carbonyl]-5-methoxy-3-methylimidazo [1,2-a]pyridin-2-yl]-1-(cyclopropylmethyl)pyrrolo [2,3-b]pyridin-6-yl]-~{N}-(difluoromethyl) cyclopropanesulfonamide]	0.253 µM
COc1cc(C(=O)N2C[C@@H](F)[C@@H](N)C2)cc2nc(-c3cc4ccc(N(C(F)F)S(C)(=O)=O)nc4n3CC3CC3)c(C)n12 [Example 291, ~{N}-[2-[7-[(3~{S}, 4~{R})-3-amino-4-fluoropyrrolidine-1-carbonyl]-5-methoxy-3-methylimidazo [1,2-a]pyridin-2-yl]-1-(cyclopropylmethyl)pyrrolo [2,3-b]pyridin-6-yl]-~{N}-(difluoromethyl) methanesulfonamide]	6.36 µM
COc1cc(C(=O)N2[C@H]3CC[C@@H]2[C@H](N)C3)cc2nc(-c3cc4ccc([C@@H](C)NC(=O)C56CC(CO5)C6)nc4n3CC3CC3)c(C)n12 [Example 132, ~{N}-[(1~{R})-1-[2-[7-[(1~{R},2~{R},4~{S})-2-amino-7-azabicyclo[2.2.1]heptane-7-carbonyl]-5-methoxy-3-methylimidazo [1,2-a]pyridin-2-yl]-1-(cyclopropylmethyl)pyrrolo [2,3-b]pyridin-6-yl]ethyl]-2-oxabicyclo[2.1.1]hexane-1-carboxamide]	0.698 µM

Compounds with a lower IC50, results first:

IC50	SMILES
0.132 µM	CCc1ccc2cc(-c3nc4cc(C(=O)N5[C@H]6CC[C@@H]5[C@H](N)C6)cc(OC)n4c3C)n(CC(F)(F)F)c2n1 [Example 504, [(1~{R},2~{R},4~{S})-2-amino-7-azabicyclo [2.2.1]heptan-7-yl]-[2-[6-ethyl-1-(2,2,2-trifluoroethyl)pyrrolo[2,3-b]pyridin-2-yl]-5-methoxy-3-methylimidazo[1,2-a]pyridin-7-yl]methanone]
0.125 µM	Cc1cc(C(=O)N2CCC[C@@H](N)C2)cc2nc(-c3cc4ccc(N(C(F)F)S(C)(=O)=O)nc4n3CC3CC3)c(C)n12 [Example 426, ~{N}-[2-[7-[(3~{R})-3-aminopiperidine-1-carbonyl]-3,5-dimethylimidazo [1,2-a]pyridin-2-yl]-1-(cyclopropylmethyl)pyrrolo [2,3-b]pyridin-6-yl]-~{N}-(difluoromethyl) methanesulfonamide]
0.0894 µM	COc1cc(C(=O)N2[C@H]3CC[C@@H]2[C@H](N)C3)cc2nc(-c3cc4ccc([C@@H](C)NC(C)=O)nc4n3CC3CC3)c(C3CC3)n12 [Example 178, ~{N}-[(1~{R})-1-[2-[7-[(1~{R},2~{R},4~{S})-2-amino-7-azabicyclo[2.2.1]heptane-7-carbonyl]-3-cyclopropyl-5-methoxyimidazo [1,2-a]pyridin-2-yl]-1-(cyclopropylmethyl)pyrrolo [2,3-b]pyridin-6-yl]ethyl] acetamide]
0.085 µM	COc1cc(C(=O)N2[C@H]3CC[C@@H]2[C@H](N)C3)cc2nc(-c3cc4ccc([C@@H](C)NC(C)=O)nc4n3CC3CC3)c(C)n12 [Example 179, ~{N}-[(1~{R})-1-[2-[7-[(1~{R},2~{R},4~{S})-2-amino-7-azabicyclo[2.2.1]heptane-7-carbonyl]-5-methoxy-3-methylimidazo [1,2-a]pyridin-2-yl]-1-(cyclopropylmethyl)pyrrolo [2,3-b]pyridin-6-yl]ethyl] acetamide]
0.056 µM	COc1cc(C(=O)N2[C@H]3CC[C@@H]2[C@H](N)C3)cc2nc(-c3cc4ccc([C@@H](C)NC(=O)c5cnc(C6CC6)o5)nc4n3CC3CC3)c(C)n12 [Example 79, ~{N}-[(1~{R})-1-[2-[7-[(1~{R},2~{R},4~{S})-2-amino-7-azabicyclo[2.2.1]heptane-7-carbonyl]-5-methoxy-3-methylimidazo [1,2-a]pyridin-2-yl]-1-(cyclopropylmethyl)pyrrolo [2,3-b]pyridin-6-yl]ethyl]-2-cyclopropyl-1,3-oxazole-5-carboxamide]
0.0466 µM	COc1cc(C(=O)N2[C@H]3CC[C@@H]2[C@H](N)C3)cc2nc(-c3cc4ccc([C@@H](C)NC(=O)C5(C)CC5(F)F)nc4n3CC3CC3)c(C)n12 (some centres unmarked) [Example 102, ~{N}-[(1~{R})-1-[2-[7-[(1~{R},2~{R},4~{S})-2-amino-7-azabicyclo[2.2.1]heptane-7-carbonyl]-5-methoxy-3-methylimidazo [1,2-a]pyridin-2-yl]-1-(cyclopropylmethyl)pyrrolo [2,3-b]pyridin-6-yl]ethyl]-2,2-difluoro-1-methylcyclopropane-1-carboxamide]
0.041 µM	COc1cc(C(=O)N2[C@H]3CC[C@@H]2[C@H](N)C3)cc2nc(-c3cc4ccc([C@@H](C)NC(=O)C5CC56CC6)nc4n3CC3CC3)c(C)n12 (some centres unmarked) [Example 69, ~{N}-[(1~{R})-1-[2-[7-[(1~{R},2~{R},4~{S})-2-amino-7-azabicyclo [2.2.1]heptane-7-carbonyl]-5-methoxy-3-methylimidazo [1,2-a]pyridin-2-yl]-1-(cyclopropylmethyl)pyrrolo[2,3-b]pyridin-6-yl]ethyl]spiro[2.2] pentane-2-carboxamide]
0.0378 µM	COc1cc(C(=O)N2[C@H]3CC[C@@H]2[C@H](N)C3)cc2nc(-c3cc4ccc([C@@H](C)NC(=O)N5CC6C(C5)C6(F)F)nc4n3CC3CC3)c(C)n12 (some centres unmarked) [Example 209, ~{N}-[(1~{R})-1-[2-[7-[(1~{R},2~{R},4~{S})-2-amino-7-azabicyclo[2.2.1]heptane-7-carbonyl]-5-methoxy-3-methylimidazo [1,2-a]pyridin-2-yl]-1-(cyclopropylmethyl)pyrrolo [2,3-b]pyridin-6-yl]ethyl]-6,6-difluoro-3-azabicyclo[3.1.0]hexane-3-carboxamide]
0.0378 µM	COc1cc(C(=O)N2[C@H]3CC[C@@H]2[C@H](N)C3)cc2nc(-c3cc4ccc([C@@H](C)NC(=O)C5CCC5(F)F)nc4n3CC3CC3)c(C)n12 (some centres unmarked) [Example 61, ~{N}-[(1~{R})-1-[2-[7-[(1~{R},2~{R},4~{S})-2-amino-7-azabicyclo [2.2.1]heptane-7-carbonyl]-5-methoxy-3-methylimidazo [1,2-a]pyridin-2-yl]-1-(cyclopropylmethyl)pyrrolo[2,3-b]pyridin-6-yl]ethyl]-2,2-difluorocyclobutane-1-carboxamide]
0.0356 µM	COc1cc(C(=O)N2[C@H]3CC[C@@H]2[C@H](N)C3)cc2nc(-c3cc4ccc([C@@H](C)N5CCCCC5=O)nc4n3CC3CC3)c(C)n12 [Example 271]
0.0336 µM	COc1cc(C(=O)N2[C@H]3CC[C@@H]2[C@H](N)C3)cc2nc(-c3cc4ccc([C@@H](C)NC(=O)C56CC(CO)(C5)C6)nc4n3CC3CC3)c(C)n12 [Example 65]
